Consider one compound from BindingDB's records for doi:10.1016/j.ejmech.2020.113121 (Virginia Tech, 2021).

The nature of the experiment: Inhibition of recombinant human Sphk2 expressed in yeast strain KYA1 assessed as increase in yeast growth measured after 24 hrs.

As to `CCCCCCCCCn1ccc2cc(-c3noc([C@@H]4CCCN4C(=N)N)n3)ccc21`, the EC50 (in general, the concentration that produces a half-maximal response) was 170 nM.
